{"source": "patent US10183941B2", "about": "“Pyrimidine or pyridopyridone compound and application thereof” (GUANGZHOU BEBETTER MEDICINE TECHNOLOGY CO., LTD., priority 2015, dated 2019)", "key": {"[1]": {"system": "SW620", "assay": "Tumor cell proliferation inhibition (CellTiter-Glo), SW620", "assay_type": "cell-based", "details": "Homo sapiens, SW-620; 72 hours, 10% fetal bovine serum; read-out: SW620 IC50 class", "procedure": "(§1) The content of adenosine triphosphate (ATP) was determined using the CellTiter-Glo Luminescent Cell Viability Assay Kit (Promega, Madison, Wis.) to evaluate cell viability. Tumor cell lines (SW620, ZR-75-1, MDA-MB-231) were purchased from the Cell Resource Center of IBS, Fudan University, Shanghai and the American Type Culture Collection (ATCC). The cell density was determined using Scepter automated cell counter (Millipore # PHCC00000) after the cells were digested with pancreatin in cell culture dishes and resuspended in DPBS medium. The cells were diluted to a solution of 44,000 cells per ml. The cell solution of which density was adjusted was added into the cell assay plate at 90 microliters per well. The well plate was incubated in an incubator with 5% CO2 at 37° C. for 24 hours and then added with test compounds with different concentrations. The cells were incubated with the compounds in the presence of 10% fetal bovine serum for 72 hours. ATP content was assayed using the CellTiter-Glo® Luminescent Cell Viability Assay kit (see instructions of manufacturer) to assess cell growth inhibition. Briefly, 30 μl of CellTiter-Glo® reagent was added to each well, rocked for 10 minutes to induce cell lysis, and […] were detected and recorded with Fluoroskan Ascent FL (Thermo). The maximum signal value was obtained from the cells treated with dimethyl sulfoxide for 72 hours. The minimum signal value was obtained from the separate culture medium (cell number was zero). Inhibition rate %=(maximum signal value−compound signal value)/(maximum signal value−minimum signal value)×100. Data was processed using GraphPad Prism V5.0 (GraphPad Software, San Diego, Calif.) software. IC50 values were calculated by fitting S-shaped dose-response curves."}, "[2]": {"system": "phosphorylation of Rb at Ser780 in MDA-MB-231 breast cancer cells", "assay": "Western Blot experiment, Rb phosphorylation", "assay_type": "cell-based", "details": "MDA-MB-231 cells, 16 hours incubation, FIG. 1", "procedure": "MDA-MB-231 cells were grown in monolayer culture. […] The protein concentration was determined by the Branfor method. After being added with a loading buffer (Beyotime, # P0015L), the supernatant was boiled at 100° C. for 8 min, and the protein was separated by 8%-10% SDS-PAGE electrophoresis and then transferred to the PVDF membrane, and the membrane was blocked with 5% skimmed milk powder for 45 min, and then the cells were incubated overnight at 4° C. with primary antibody β-actin (CST, #4970), Rb (D20) Rabbit mAb (CST, #9313), Phospho-Rb(Ser780)(D59B7) Rabbit mAb (CST, #8180), and then the membrane was washed with TBST solution for 3×10 min. The cells were incubated in the dark at room temperature for 2 h with the fluorescent secondary antibody IRDye@680CW Goat (polyclonal) Anti-Rabbit 1gG (H+L), Highly Cross Adsorbed (LI-COR, #926-68071), and then the membrane was washed under the same condition above. Finally, the membrane was detected and imaged on a LI-COR Odyssey Infrared Fluorescence Scanning System, and the results are shown in FIG. 1.\nCDK4/6 can make Rb protein lose the arrest on cell cycle by phosphorylating the tumor suppressor protein Rb protein. CDK4/6 inhibitor can prevent the inactivation of tumor suppressor protein Rb and thereby restore the arrest of Rb on cell cycle."}, "[3]": {"system": "MDA-MB-231", "assay": "Tumor cell proliferation inhibition (CellTiter-Glo), MDA-MB-231", "assay_type": "cell-based", "details": "Homo sapiens, 72 hours, 10% fetal bovine serum, read-out: MDA-MB-231 IC50 class", "procedure": "as §1"}, "[4]": {"system": "MDA-MB-435 breast cancer cells", "assay": "Pharmacodynamic experiment, MDA-MB-435 xenograft", "assay_type": "in vivo, mouse", "procedure": "MDA-MB-435 breast cancer cells were obtained from Shanghai Cell Bank of Chinese Academy of Sciences. Cryopreserved cells were thawed in a 37° C. water bath and then placed in RPMI 1640 medium supplemented with 10% fetal bovine serum (FBS), 1% insulin (Bioman Biotech, Shanghai) and incubated in 5% CO2 of Tissue Culture Incubator. […] The sign of successful transplantation was the formation of a round bulging lump under the skin. Tumor size can be measured approximately two weeks after implantation. The tumor size was measured by a caliper."}, "[5]": {"molecular_target": "T1, CDK4 (GST-CDK4(1-303end)/GST-CycD3(1-292end)) (Homo sapiens, UniProt P11802)", "T1 construct": "GST-CDK4(1-303end); purchased Carna 04-105", "T1 sequence (P11802 whole entry)": "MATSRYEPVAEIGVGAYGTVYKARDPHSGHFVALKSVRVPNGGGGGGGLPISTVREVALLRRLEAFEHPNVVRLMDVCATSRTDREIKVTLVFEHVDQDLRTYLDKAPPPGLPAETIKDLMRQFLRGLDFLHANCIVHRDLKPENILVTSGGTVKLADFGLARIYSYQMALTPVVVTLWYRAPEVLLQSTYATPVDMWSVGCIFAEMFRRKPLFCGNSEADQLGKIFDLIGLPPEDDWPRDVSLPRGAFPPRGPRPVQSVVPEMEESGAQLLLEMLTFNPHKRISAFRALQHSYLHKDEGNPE", "T1 sequence (P30281 whole entry partner)": "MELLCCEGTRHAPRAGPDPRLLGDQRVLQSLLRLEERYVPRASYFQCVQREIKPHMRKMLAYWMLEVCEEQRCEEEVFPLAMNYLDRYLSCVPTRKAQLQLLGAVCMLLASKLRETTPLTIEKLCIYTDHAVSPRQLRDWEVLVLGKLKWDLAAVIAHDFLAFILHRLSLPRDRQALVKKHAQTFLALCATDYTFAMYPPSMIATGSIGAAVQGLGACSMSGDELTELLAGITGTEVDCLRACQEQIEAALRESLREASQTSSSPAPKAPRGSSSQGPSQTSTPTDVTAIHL", "assay": "CDK4 activity inhibition experiment (Caliper mobility shift assay)", "assay_type": "biochemical", "details": "enzyme activity inhibition; read-out: CDK4 IC50 class"}, "[6]": {"molecular_target": "T2, CDK6 (GST-CDK6(1-326end)) (Homo sapiens, UniProt Q00534)", "T2 construct": "GST-CDK6(1-326end); purchased Carna 04-107", "T2 sequence (Q00534 whole entry)": "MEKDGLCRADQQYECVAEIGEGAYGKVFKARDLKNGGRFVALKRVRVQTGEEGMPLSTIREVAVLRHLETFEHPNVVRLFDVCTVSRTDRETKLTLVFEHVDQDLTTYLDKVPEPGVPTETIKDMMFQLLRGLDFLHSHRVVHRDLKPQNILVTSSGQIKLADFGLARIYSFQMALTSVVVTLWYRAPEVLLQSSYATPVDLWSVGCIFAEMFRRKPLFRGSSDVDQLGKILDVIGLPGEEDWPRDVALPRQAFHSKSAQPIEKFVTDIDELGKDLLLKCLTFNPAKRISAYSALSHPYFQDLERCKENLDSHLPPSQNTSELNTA", "T2 sequence (P30281 whole entry partner)": "as the sequence (P30281 whole entry partner) above", "assay": "CDK6 activity inhibition experiment (Caliper mobility shift assay)", "assay_type": "biochemical", "details": "enzyme activity inhibition; read-out: CDK6 IC50 class", "procedure": "The activity of CDK6 protein kinase was measured using Caliper mobility shift assay (see J. Biomol Screen 14:31, 2009). […] 10 μl of the 2.5 times diluted CDK6 enzyme solution (GST-CDK6(1-326end); Carna, Cat. No 04-107) was added and then incubated at room temperature for 10 minutes, then 10 μl of the 2.5 times diluted substrate solution Peptide FAM-P8 (GL Biochem, Cat. No. 112396) was added. After being incubated at 28° C. for 40 minutes, 25 μl of stop solution was added to stop the reaction. Conversion rate data was read from Caliper EZ Reader II (Caliper Life Sciences). The conversion rate data was converted into inhibition rate data. […] Conversion rate data was converted into inhibition rate data according to the method described above. Inhibition rate %=(max−conversion rate)/(max−min)×100."}, "[7]": {"assay": "Pharmacokinetic (PK) experiment in rats", "assay_type": "in vivo", "details": "male, SD, plasma, po, rat, intragastric 20 mg/kg", "procedure": "Male SD rats weighing 300-350 g were fasted overnight prior to the experiment. The compounds to be tested were dissolved in 30% sulfobutyl ether-β-cyclodextrin (SBE-β-CD) and the rats were intragastric administration at 20 mg/kg. The blood was taken from the tails of the rats at 15 min, 30 min, and 1, 2, 3, 4, 6, 8 and 24 hours after administration, with about 0.3 ml of blood at each time point, and then the blood was placed in a centrifuge tube containing K2-EDTA, and centrifuged (2,000 g, 10 min, 4° C.) to take the plasma which was then stored in an ultra-low temperature freezer at −80° C. 50 μL, of plasma sample was mixed with 5 μL of internal standard (IS) and extracted with ethyl acetate. The residue was redissolved in acetonitrile after vacuum drying. The sample was filtered and injected into LC-MS/MS for analysis to determine the concentration of the compounds to be tested.\nIn the table: Tmax refers to the peak time, Cmax refers to the maximum plasma drug concentration, T1/2 is the half-life, AUClast refers to the area under the 0-24 hour time-concentration curve, AUCinf refers to the area under the 0-Inf time-concentration curve."}}, "data": [{"compound": "CC(=O)c1c(C)c2cnc(Nc3ccc(C4CCN(CCS(C)(=O)=O)CC4)cn3)nc2n(C2CCCC2)c1=O", "note": "[Compound 1, 6-acetyl-8-cyclopentyl-5-methyl-2-((5-(1-(2-(methylsulfonyl)ethyl)piperidin-4-yl)pyridin-2-yl)amino)pyrido[2,3-d]pyrimidin-7(8H)-one]", "values": [{"measurement": "IC50", "setting": "[1]", "value": "0.1 to 0.5", "unit": "µM"}, {"measurement": "phosphorylation of Rb at Ser780 site", "setting": "[2]", "value": "effectively reduce"}, {"measurement": "IC50", "setting": "[3]", "value": "0.1 to 0.5", "unit": "µM"}, {"measurement": "T/C value", "setting": "[4]; after 14 days of oral administration, PD-0332991 150 then 100 mg/kg once daily, Compound 1 75 mg/kg twice daily", "value": 25, "unit": "%"}, {"measurement": "T/C value", "setting": "[4]; day 6 after discontinuation (D20)", "value": 32, "unit": "%"}, {"measurement": "IC50", "setting": "[5]", "value": "< 0.01", "unit": "µM"}, {"measurement": "IC50", "setting": "[6]", "value": "0.01 to 0.05", "unit": "µM"}, {"measurement": "Cmax", "setting": "[7]", "value": 1450, "unit": "ng/mL"}, {"measurement": "Tmax", "setting": "[7]", "value": 1.5, "unit": "h"}, {"measurement": "half-life", "setting": "[7]", "value": 1.5, "unit": "h"}, {"measurement": "AUC(0-t)", "setting": "[7]; 0-24 hour", "value": 4400, "unit": "ng·h/mL"}, {"measurement": "AUC(0-inf)", "setting": "[7]; 0-Inf", "value": 4540, "unit": "ng·h/mL"}]}]}
